# pIC50: −log10 of the molar value.
# Key:
# [1] = biological target: T1, human dopamine transporter (hDAT) (Homo sapiens, UniProt Q01959); test: cell-based; conditions: transfected CHO-K1 cells, 50 nM [3H]-dopamine; read-out: IC50, inhibition of dopamine reuptake
# T1 construct: expressed in transfected cells; host or cells: CHO-K1
# Description: Specific signal was determined in the presence of 10 μM nomifensine (dopamine reuptake inhibitor). Cells were then solubilised with 1% SDS lysis buffer.
# [2] = biological target: T2, human noradrenaline transporter (hNAT) (Homo sapiens, UniProt P23975); test: Noradrenaline uptake inhibition in MDCK cells expressing hNAT; assay type: cell-based
# T2 construct: expressed in transfected cells; host or cells: MDCK
# Description: Madin Darby canine kidney (MDCK) cells, stably expressing the human noradrenaline transporter (hNAT), were plated one day before the assay. […] Cells in each well were then rinsed twice, solubilised with 1% SDS lysis buffer and the lysate was analysed to determine [^3H]-noradrenaline uptake. […] Reduction of [^3H]-noradrenaline uptake by 50 percent or more (≧50%) relative to vehicle controls indicated significant inhibitory activity.
# [3] = biological target: T3, human calcitonin gene-related peptide (hCGRP) receptor (Homo sapiens, UniProt O60894+Q16602); test: CGRP receptor radioligand binding assay; conditions: 0.03 nM [125I]h-CGRPα, CHO cell membranes, read-out: percentage inhibition of control radioligand specific binding to hCGRP receptor
# T3 construct: expressed in transfected cells; host or cells: CHO (membrane homogenates)
# Description: The effect of carnosol on the agonist site of the human calcitonin gene-related peptide (hCGRP) receptor in transfected CHO cells was investigated using a radioligand binding assay adapted from that described by Aiyar et al. (1996, J. Biol. Chem., 271: 11325-11329).
# Briefly, cell membrane homogenates (10 μg protein) were incubated for 90 min at 22° C. with 0.03 nM [^125I]h-CGRPα in the absence or presence of carnosol (10 μM) in a buffer containing 50 mM HEPES-NaOH (pH 7.4), 10 mM MgCl2, 4 mM KCl, 10 mM NaCl, 1 mM EDTA, 1 μM phosphoramidon, 0.3% BSA and 0.04% bacitracine. Non-specific binding was determined in the presence of 1 μM h-CGRPα. Following incubation, the samples were filtered rapidly under vacuum through glass fibre filters (GF/B, Packard) pre-soaked with 0.3% polyethyleneimine (PEI) and rinsed several times with ice-cold 50 mM Tris-HCl using a 96-sample cell harvester (Unifilter, Packard). The filters were dried then counted for radioactivity in a scintillation counter (Topcount, Packard) using a scintillation cocktail (Microscint 0, Packard). The results are expressed as percentage inhibition of the control radioligand specific binding. The standard reference compound used was h-CGRPα, the natural agonist of the hCGRP receptor.
# [4] = tested on: mouse; test: Porsolt's Forced Swim Test (FST); assay type: in vivo
# Description: The Forced Swim Test (FST) was first reported in 1977 for screening of antidepressant-like compounds in rats (Porsolt et al 1977 Nature, 266:730-732) and, later, modified for testing mice (Porsolt et al 1977 Arch. Int. Pharmacodynamie, 229:327-336).
# In two separate experiments, mice were tested following either i.p. or p.o. administration of carnosol. Mice were individually placed in a cylinder containing water (22° C.) from which they could not escape. The mice were placed in the water for 6 min and the duration of immobility during the last 4 min was measured. Ten to fifteen mice were studied per group. Carnosol was evaluated at 3, 10, 30 mg/kg body weight (i.p. 30 min before the test) or 200, 400, 600 mg/kg body weight (p.o., 24, 5 and 1 h before the test), and compared with vehicle control groups. Imipramine (32 mg/kg i.p., or p.o., respectively), administered under the same experimental conditions, was used as reference substance. Immobility and swimming time were assessed.
# T2 sequence (P23975 whole entry): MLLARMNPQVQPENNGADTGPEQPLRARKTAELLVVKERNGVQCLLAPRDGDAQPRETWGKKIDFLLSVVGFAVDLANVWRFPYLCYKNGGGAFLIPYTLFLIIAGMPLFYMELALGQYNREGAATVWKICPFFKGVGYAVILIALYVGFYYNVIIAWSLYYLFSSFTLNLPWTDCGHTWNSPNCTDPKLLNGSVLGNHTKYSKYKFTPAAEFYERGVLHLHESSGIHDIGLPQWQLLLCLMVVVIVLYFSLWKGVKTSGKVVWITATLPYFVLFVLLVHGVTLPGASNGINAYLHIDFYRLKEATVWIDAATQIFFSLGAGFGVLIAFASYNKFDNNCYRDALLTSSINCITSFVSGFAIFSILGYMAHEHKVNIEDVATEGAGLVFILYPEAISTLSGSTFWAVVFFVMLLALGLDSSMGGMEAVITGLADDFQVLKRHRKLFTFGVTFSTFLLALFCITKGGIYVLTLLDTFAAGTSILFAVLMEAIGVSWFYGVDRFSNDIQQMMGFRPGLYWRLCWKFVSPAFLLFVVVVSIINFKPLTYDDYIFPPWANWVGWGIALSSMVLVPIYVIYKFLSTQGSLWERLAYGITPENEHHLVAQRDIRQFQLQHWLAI
# T3 sequence (Q16602 23-461): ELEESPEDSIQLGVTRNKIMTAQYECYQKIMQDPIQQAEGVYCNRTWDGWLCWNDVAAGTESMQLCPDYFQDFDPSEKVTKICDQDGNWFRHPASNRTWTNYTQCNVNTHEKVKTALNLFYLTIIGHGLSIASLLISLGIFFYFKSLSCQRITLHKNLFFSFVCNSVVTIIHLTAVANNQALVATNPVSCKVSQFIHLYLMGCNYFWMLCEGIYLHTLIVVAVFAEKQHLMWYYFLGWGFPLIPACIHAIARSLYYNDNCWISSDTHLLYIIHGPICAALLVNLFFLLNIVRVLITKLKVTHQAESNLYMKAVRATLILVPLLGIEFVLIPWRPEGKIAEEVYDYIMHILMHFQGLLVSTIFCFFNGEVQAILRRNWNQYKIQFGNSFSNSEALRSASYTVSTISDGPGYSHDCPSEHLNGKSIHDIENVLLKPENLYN
# T3 sequence (O60894 27-148): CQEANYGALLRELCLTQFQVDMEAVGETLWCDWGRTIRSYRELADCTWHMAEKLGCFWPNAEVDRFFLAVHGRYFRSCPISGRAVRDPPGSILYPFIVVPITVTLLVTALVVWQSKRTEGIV
# T1 sequence (Q01959 whole entry): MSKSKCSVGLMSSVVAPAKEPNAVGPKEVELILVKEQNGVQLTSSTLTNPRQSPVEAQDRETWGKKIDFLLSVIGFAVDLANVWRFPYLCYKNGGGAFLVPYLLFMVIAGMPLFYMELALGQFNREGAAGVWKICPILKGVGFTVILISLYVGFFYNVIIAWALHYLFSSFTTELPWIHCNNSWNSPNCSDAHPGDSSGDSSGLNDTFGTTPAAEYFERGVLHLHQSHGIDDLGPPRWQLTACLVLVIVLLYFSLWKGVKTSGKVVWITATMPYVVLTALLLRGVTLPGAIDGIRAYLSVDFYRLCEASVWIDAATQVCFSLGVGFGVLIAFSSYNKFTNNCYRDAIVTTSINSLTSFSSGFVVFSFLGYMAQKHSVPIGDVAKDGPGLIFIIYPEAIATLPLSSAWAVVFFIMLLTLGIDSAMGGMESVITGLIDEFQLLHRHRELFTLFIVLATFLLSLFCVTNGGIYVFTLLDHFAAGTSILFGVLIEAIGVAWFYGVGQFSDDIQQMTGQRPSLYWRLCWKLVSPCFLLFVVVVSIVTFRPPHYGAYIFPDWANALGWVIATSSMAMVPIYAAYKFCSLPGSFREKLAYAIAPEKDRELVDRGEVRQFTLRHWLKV
compound,measurement,setting,value
"CC(C)c1cc2c(c(O)c1O)[C@@]13CCCC(C)(C)[C@@H]1C[C@@H]2OC3=O [Carnosol, carnosol]",pIC50,[1],4.99
same,pIC50,[2],4.51
same,inhibition at 10 µM,[3],54%
same,Duration of immobility (% change from control),"[4]; 3 mg/kg i.p., −30 min",−26%
same,Duration of immobility (% change from control),"[4]; 10 mg/kg i.p., −30 min",−21%
same,Duration of immobility (% change from control),"[4]; 30 mg/kg i.p., −30 min",−18%
same,Duration of immobility (% change from control),"[4]; 200 mg/kg p.o., −24, −5, −1 h",−9%
same,Duration of immobility (% change from control),"[4]; 400 mg/kg p.o., −24, −5, −1 h",−53%
same,Duration of immobility (% change from control),"[4]; 600 mg/kg p.o., −24, −5, −1 h",−3%

# Reference: patent publication US8227508B2, “Dietary and pharmaceutical compositions containing carnosol and/or rosmanol and their uses” (DSM IP Assets B.V., priority 2006, dated 2012)
